Values quoted from earlier work, collected in patent publication EP4473960A1, “VACCINE FORMULATION COMPRISING A SURFACTANT THAT DOES NOT COMPRISE AN ESTER BOND” (Vaxxinova Nederland BV, priority 2023, dated 2024).
Like-named read-outs stand apart in the source and are kept apart here.

[1] = Table 2, surfactants without ester bond
[2] = Table 3A, HLB values of surfactants discussed

For “Polyoxyethylen (2) stearylether [Brij 72]”, the HLB [1] is listed as 4,9 and the HLB [2] is listed as 4,9.
For “Polyoxyethylen (25) cetylstearylether [Cremophor A25]”, the HLB [1] is given as 15-17 and the HLB [2] is given as 15-17.
In the case of “Polyoxyethylen (4) laurylether [Brij 30]”, the HLB [1] is given as 9,7 and the HLB [2] is given as 9,7.
For Polyoxyethylen (10) tridecylether, the HLB [1] is given as 13.7.
For Sorbitan monooleate [Span 80], the “Hydrophilic-Lipophilic Balance (HLB)” value is given as 4,3 and the HLB [2] is given as 4,3.
For Sorbitan tristearate [Span 65], the HLB [2] is listed as 2,2.
In the case of Polyoxyethylen (9) laurylether [Thesit], the HLB [1] is given as 11.2.
For Sorbitan palmitate [Span 40], the HLB [2] is listed as 6.7.
For Polyoxyethylen (10) monodecylether, the HLB [1] is given as 14.6.
For Polyoxyethylen (2) cetylether [Brij 52], the HLB [1] is given as 5,3 and the HLB [2] is given as 5,3.
For “Polyoxyethylen (6) cetylstearylether [Cremophor A6]”, the HLB [1] is given as 10-12 and the HLB [2] is given as 10 - 12.
For Polyoxyethylen (2) oleylether [Brij 92], the HLB [1] is listed as 4,9 and the HLB [2] is listed as 4,9.
For Sorbitan stearate [Span 60], the HLB [2] is given as 4,7.
For “Polyoxyethylen (20) cetylstearylether [Cremophor A20]”, the HLB [1] is given as 14-16.
